A short description of data set [1]: drug stability in simulated gastric fluid. Format: physicochemical. As to conditions: SGF pH 1.2, 37° C., 24 hour duration; HPLC-UV. How it is done: Given that the tested residence device is designed to reside in the stomach for an extended period, the drug stability was analyzed in simulated gastric fluid (0.2% w/v sodium chloride, and 0.7% w/v hydrochloric acid, adjusted to pH-1.2; referred to as SGF). Moxifloxacin was dissolved in SGF and placed at 37° C. At various times, part of the solution was aliquoted and stored at about −20° C. until further analysis. For carbamazepine, the drug was first dissolved in methanol and then diluted in SGF (at least 100-fold). At various times, part of the solution was collected and stored at −20° C. On completion of the study, drug concentration in the various aliquots was measured using high performance liquid chromatography-ultraviolet (HPLC-UV) analysis (High Performance Liquid Chromatography).

The nature of data set [2]: solubility in simulated gastric fluid. Format: physicochemical.
The nature of data set [3]: in vitro drug release from drug-polymer matrices in simulated gastric fluid. Format: physicochemical. To be noted: addition of water soluble polymers such as PEG 3350 and Kolliphor P 407 to the polymer matrix; SGF with 5% (w/v) Tween 20. How it is done: To perform the release study, drug-polymer matrices ( 1 cm in length) were incubated with 50 ml of the respective release medium in a 37° C. incubator shaker at 50 rpm. At various times, 1 ml of the release medium was collected and stored at -20° C. until further analysis. The remaining medium was discarded, and the arms were incubated with fresh medium. For measuring drug concentrations in the release medium, all specimens (beam-like arms) were thawed, centrifuged at 1500 g for 10 min, and analyzed using high-performance liquid chromatography (HPLC). Depending on the drug used, the links had excipients and elasticizers added to enhance the drug release and mechanical properties, respectively. For both moxifloxacin ([…], Inc) and carbamazepine (Ark Pharm, Inc), poly(ethylene glycol) (PEG) (molecular weight-3350 Da, Spectrum Corp.), Kolliphor® P 407 (BASF), and EUDRAGIT® E PO (Evonik) were used as excipients. For carbamazepine, CarbothaneTM TPU P[…] was used as an elasticizer. For X-ray visualization, 15% weight ratio of BaSO4 was added. Various polymeric formulations were investigated for controlled release of the drugs. The in vitro drug release was also investigated by changing drug loading and the composition of excipients, as well as application of polymeric coating (using a solution of 5.4% PCL (w/v) and 0.6% EUDRAGIT® E PO (w/v) in acetone). […]

Data set [4] in a line: in vivo prolonged drug delivery, blood concentration versus time. On the set-up: species or system Yorkshire pigs. As to conditions: pigs. How it is done:
To evaluate the ability of residence devices loaded with the selected carbamazepine formulation to achieve gastric retention, the above described residence device was administered to a large animal model (three 35 to 50 kg Yorkshire pigs for each drug). Following overnight fasting and sedation of the animals, an overtube (US Endoscopy), with endoscopic guidance, was placed into the stomach to facilitate direct gastric delivery of the residence device. A residence devices folded into a cylindrical shape of length 20 cm and diameter of 12 mm (see the folded configuration in FIG. 1A) was administered via the overtube into the stomach of each pig, and the overtube was then removed. […] Serial radiographs were performed immediately afterwards and every 48-72 hours to monitor the integrity and transit of the devices as well as any radiographic evidence of bowel obstruction. In addition, animals were monitored clinically at least twice a day for any evidence of morbidity, including lethargy, inappetence, decreased fecal output, abdominal distension and vomiting. […] Endoscopic evaluation of the stomach over the course of the study was performed to further explore the stomach and ensure the absence of any ulceration or injury. Blood samples were taken at the following time points, 0 min (before administration of the dosage form), 5 min, 15 min, 30 min, 2 hours, 6 hours, daily for a minimum of 5 days, and then three times for the second week from peripheral veins under sedation.
One hundred microliters of each blood sample was spiked with 200 μl of 250 ng/mL internal standard (imipramine for carbamazepine) with acetonitrile added to elicit protein precipitation. Samples were vortexed, sonicated, and centrifuged prior to being pipetted into a well plate containing 200 μl of nanopure water. Finally, the samples were injected into an Ultra Performance Liquid Chromatography tandem mass spectrometry (UPLC-MS/MS) for analysis.

Data set [5] in a line: drug stability at elevated temperature. It is filed as physicochemical. As to conditions: 120° C., may be reached during manufacturing of the dosage form.
Experimental: Additionally, drug stability was evaluated for an elevated temperature of 120° C. which may be reached during the manufacturing of the dosage form.

Consider `NC(=O)N1c2ccccc2C=Cc2ccccc21` [carbamazepine], for which the “stability in SGF” value in data set [1] was “stable”. Besides, the “solubility in simulated gastric fluid (SGF)” value in data set [2] was “limited solubility”. The “increase in release of carbamazepine” value in data set [3] is listed as “greater than 3 fold”. Also, the “carbamazepine concentration versus time profile” value in data set [4] (14 day residence time, UPLC-MS/MS) was “initial spike in concentration was observed in the first day followed by relatively uniform concentrations”. In data set [4] (residence device), the “area under the curve as compared to immediate release formulations” value is reported as “enhanced area under the curve” and the “maximum concentration as compared to immediate release formulations” value is on record as “lower maximum concentration”. In data set [4] (residence device, direct gastric delivery), the “duration of drug delivery after a single administration” value was “up to 14 days”. For the same compound, the “drug degradation at elevated temperature” value in data set [5] is on record as “no appreciable drug degradation”.

Consider `COc1c(N2C[C@@H]3CCCN[C@@H]3C2)c(F)cc2c(=O)c(C(=O)O)cn(C3CC3)c12` [moxifloxacin], for which, in data set [1], the “stability in SGF” value is listed as “stable”. In addition, the “drug degradation at elevated temperature” value in data set [5] is recorded as “no appreciable drug degradation”.

These data come from patent US11648381B2, “Thermally controlled residence devices” (Massachusetts Institute of Technology, priority 2018, dated 2023).
